Laboratory results published in patent US20220132852A1, “PESTICIDALLY ACTIVE HETEROCYCLIC DERIVATIVES WITH SULFUR CONTAINING SUBSTITUENTS” (SYNGENTA CROP PROTECTION AG, priority 2019, published 2022).

Tests used:
Assay type in all cases: in vivo
[1] = test system: Diabrotica balteata (Corn Root Worm); experiment: Example B1: Activity against Diabrotica balteata (corn root worm), sprayed maize sprouts; conditions: 96 h, application rate 200 ppm, L2 larvae on sprayed maize sprouts, 4 days after infestation, read-out: effect in at least one of the two categories (mortality or growth inhibition)
Protocol: Example B1: Activity Against Diabrotica balteata (Corn Root Worm)
Maize sprouts placed onto an agar layer in 24-well microtiter plates were treated with aqueous test solutions prepared from 10′000 ppm DMSO stock solutions by spraying. After drying, the plates were infested with L2 larvae (6 to 10 per well). The samples were assessed for mortality and growth inhibition in comparison to untreated samples 4 days after infestation.

[2] = test system: Plutella xylostella (Diamond Back Moth); experiment: Example B3: Activity against Plutella xylostella (diamond back moth), artificial diet; conditions: 192 h, application rate 200 ppm, eggs on artificial diet, 8 days after infestation, read-out: effect in at least one of the two categories (mortality or growth inhibition)
Protocol: Example B3: Activity Against Plutella xylostella (Diamond Back Moth)
24-well microtiter plates with artificial diet were treated with aqueous test solutions prepared from 10′000 ppm DMSO stock solutions by pipetting. After drying, Plutella eggs were pipetted through a plastic stencil onto a gel blotting paper and the plate was closed with it. The samples were assessed for mortality and growth inhibition in comparison to untreated samples 8 days after infestation. The following compounds gave an effect of at least 80% in at least one of the two categories (mortality or growth inhibition) at an application rate of 200 ppm: P2, P4, P5, P6, P8, P9, P10, P11, P12, P14, P15, P16, P17, P18, P19, P20, P21, P22, P23, P24, P25, P26, P27, P28, P29, P30, P31, P32, P33, P34, P35, P36, P38, P39, P40, P42, P45, P46, P47, P49, P50, P51, P52.

[3] = test system: Euschistus heros (Neotropical Brown Stink Bug); experiment: Example B2: Activity against Euschistus heros (neotropical brown stink bug), sprayed soybean leaves; conditions: 120 h, application rate 200 ppm, N2 nymphs on sprayed soybean leaves, 5 days after infestation, read-out: effect in at least one of the two categories (mortality or growth inhibition)
Protocol: Example B2: Activity Against Euschistus heros (Neotropical Brown Stink Bug)
Soybean leaves on agar in 24-well microtiter plates were sprayed with aqueous test solutions prepared from 10′000 ppm DMSO stock solutions. After drying the leaves were infested with N2 nymphs. The samples were assessed for mortality and growth inhibition in comparison to untreated samples 5 days after infestation.

[4] = test system: Spodoptera littoralis (Egyptian Cotton Leaf Worm); experiment: Example B6: Activity against Spodoptera littoralis (Egyptian cotton leaf worm); conditions: foliar, 72 h, application rate 200 ppm, L1 larvae on sprayed cotton leaf discs, 3 days after infestation, read-out: control (mortality, anti-feeding effect or growth inhibition)
Protocol: Example B6: Activity Against Spodoptera littoralis (Egyptian Cotton Leaf Worm)
Cotton leaf discs were placed onto agar in 24-well microtiter plates and sprayed with aqueous test solutions prepared from 10′000 ppm DMSO stock solutions. After drying the leaf discs were infested with five L1 larvae. The samples were assessed for mortality, anti-feeding effect, and growth inhibition in comparison to untreated samples 3 days after infestation. Control of Spodoptera littoralis by a test sample is given when at least one of the categories mortality, anti-feedant effect, and growth inhibition is higher than the untreated sample.

CCSc1cc(C2CC2)cnc1-c1cc2ncn(CC(F)(F)C(F)(F)F)c2cn1 [Compound P9, 6-(5-cyclopropyl-3-ethylsulfanyl-2-pyridyl)-3-(2,2,3,3,3-pentafluoropropyl) imidazo[4,5-c]pyridine]
≥ 80%: percent effect (mortality or growth inhibition) at 200 ppm [1] | percent effect (mortality or growth inhibition) at 200 ppm [2]

CCS(=O)(=O)c1cc(NC)cnc1-c1cc2ccn(CC(F)(F)C(F)(F)F)c2cn1 [Compound P18, 5-ethylsulfonyl-N-methyl-6-[1-(2,2,3,3,3-pentafluoropropyl)pyrrolo[2,3-c]pyridin-5-yl]pyridin-3-amine]
≥ 80%: percent effect (mortality or growth inhibition) at 200 ppm [1] | percent effect (mortality or growth inhibition) at 200 ppm [3] | percent effect (mortality or growth inhibition) at 200 ppm [2] | percent control (mortality, anti-feedant effect or growth inhibition) at 200 ppm [4]

CCS(=O)(=O)c1cc(C(C)(C)C#N)cnc1-c1cc2ccn(CC(F)(F)C(F)(F)F)c2cn1 [Compound P19, 2-[5-ethylsulfonyl-6-[1-(2,2,3,3,3-pentafluoropropyl)pyrrolo[2,3-c]pyridin-5-yl]-3-pyridyl]-2-methyl-propanenitrile]
≥ 80%: percent effect (mortality or growth inhibition) at 200 ppm [1] | percent effect (mortality or growth inhibition) at 200 ppm [3] | percent effect (mortality or growth inhibition) at 200 ppm [2] | percent control (mortality, anti-feedant effect or growth inhibition) at 200 ppm [4]

CCSc1cc(Oc2ccccn2)cnc1-c1cc2cnn(CC(F)(F)C(F)(F)F)c2cn1 [Compound P20, 5-[3-ethylsulfanyl-5-(2-pyridyloxy)-2-pyridyl]-1-(2,2,3,3,3-pentafluoropropyl) pyrazolo [3,4-c]pyridine]
≥ 80%: percent effect (mortality or growth inhibition) at 200 ppm [1] | percent effect (mortality or growth inhibition) at 200 ppm [3] | percent effect (mortality or growth inhibition) at 200 ppm [2] | percent control (mortality, anti-feedant effect or growth inhibition) at 200 ppm [4]

CCS(=O)(=O)c1cc(C2CC2)cnc1-c1cc2cnn(CC(F)(F)C(F)(F)F)c2cn1 [Compound P28, 5-(5-cyclopropyl-3-ethylsulfonyl-2-pyridyl)-1-(2,2,3,3,3-pentafluoropropyl) pyrazolo[3,4-c] pyridine]
≥ 80%: percent effect (mortality or growth inhibition) at 200 ppm [1] | percent effect (mortality or growth inhibition) at 200 ppm [3] | percent effect (mortality or growth inhibition) at 200 ppm [2] | percent control (mortality, anti-feedant effect or growth inhibition) at 200 ppm [4]

CCSc1cc(C(C)(C)C#N)cnc1-c1cc2ccn(CC(F)(F)C(F)(F)F)c2cn1 [Compound P29, 2-[5-ethylsulfanyl-6-[1-(2,2,3,3,3-pentafluoropropyl)pyrrolo[2,3-c]pyridin-5-yl]-3-pyridyl]-2-methyl-propanenitrile]
≥ 80%: percent effect (mortality or growth inhibition) at 200 ppm [1] | percent effect (mortality or growth inhibition) at 200 ppm [2]

CCSc1cc(C(F)(F)F)cnc1-c1cc2cnn(CC(F)(F)C(F)(F)F)c2cn1 [Compound P30, 5-[3-ethylsulfanyl-5-(trifluoromethyl)-2-pyridyl]-1-(2,2,3,3,3-pentafluoropropyl) pyrazolo[3,4-c] pyridine]
≥ 80%: percent effect (mortality or growth inhibition) at 200 ppm [1] | percent effect (mortality or growth inhibition) at 200 ppm [3] | percent effect (mortality or growth inhibition) at 200 ppm [2] | percent control (mortality, anti-feedant effect or growth inhibition) at 200 ppm [4]

CCS(=O)(=O)c1ccc(-n2cncn2)nc1-c1cc2ccn(CC(F)(F)C(F)(F)F)c2cn1 [Compound P35, 5-[3-ethylsulfonyl-6-(1,2,4-triazol-1-yl)-2-pyridyl]-1-(2,2,3,3,3-pentafluoropropyl) pyrrolo[2,3-c]pyridine]
≥ 80%: percent effect (mortality or growth inhibition) at 200 ppm [1] | percent effect (mortality or growth inhibition) at 200 ppm [2] | percent control (mortality, anti-feedant effect or growth inhibition) at 200 ppm [4]

CCS(=O)(=O)c1ccc(Cl)nc1-c1cc2ccn(CC(F)(F)C(F)(F)F)c2cn1 [Compound P36, 5-(6-chloro-3-ethylsulfonyl-2-pyridyl)-1-(2,2,3,3,3-pentafluoropropyl) pyrrolo[2,3-c]pyridine]
≥ 80%: percent effect (mortality or growth inhibition) at 200 ppm [1] | percent effect (mortality or growth inhibition) at 200 ppm [2] | percent control (mortality, anti-feedant effect or growth inhibition) at 200 ppm [4]

CCSc1cc(C2(C#N)CC2)cnc1-c1cc2ccn(CC(F)(F)C(F)(F)F)c2cn1 [Compound P37, 1-[5-ethylsulfanyl-6-[1-(2,2,3,3,3-pentafluoropropyl)pyrrolo[2,3-c]pyridin-5-yl]-3-pyridyl] cyclopropane-carbonitrile]
≥ 80%: percent effect (mortality or growth inhibition) at 200 ppm [1] | percent control (mortality, anti-feedant effect or growth inhibition) at 200 ppm [4]

CCSc1cc(C2(C#N)CC2)cnc1-c1cc2ncn(CC(F)(F)C(F)(F)F)c2cn1 [Compound P38, 1-[5-ethylsulfanyl-6-[3-(2,2,3,3,3-pentafluoropropyl)imidazo[4,5-c]pyridin-6-yl]-3-pyridyl] cyclopropane-carbonitrile]
≥ 80%: percent effect (mortality or growth inhibition) at 200 ppm [1] | percent effect (mortality or growth inhibition) at 200 ppm [3] | percent effect (mortality or growth inhibition) at 200 ppm [2] | percent control (mortality, anti-feedant effect or growth inhibition) at 200 ppm [4]

CCSc1cc(-n2ccc(Cl)n2)cnc1-c1cc2cnn(CC(F)(F)C(F)(F)F)c2cn1 [Compound P39, 5-[5-(3-chloropyrazol-1-yl)-3-ethylsulfanyl-2-pyridyl]-1-(2,2,3,3,3-pentafluoropropyl) pyrazolo[3,4-c]pyridine]
≥ 80%: percent effect (mortality or growth inhibition) at 200 ppm [1] | percent effect (mortality or growth inhibition) at 200 ppm [2] | percent control (mortality, anti-feedant effect or growth inhibition) at 200 ppm [4]

CCS(=O)(=O)c1cc(-n2ccc(C(F)(F)F)n2)cnc1-c1cc2cnn(CC(F)(F)C(F)(F)F)c2cn1 [Compound P45, 5-[3-ethylsulfonyl-5-[3-(trifluoromethyl)pyrazol-1-yl]-2-pyridyl]-1-(2,2,3,3,3-pentafluoropropyl) pyrazolo[3,4-c]pyridine]
≥ 80%: percent effect (mortality or growth inhibition) at 200 ppm [1] | percent effect (mortality or growth inhibition) at 200 ppm [3] | percent effect (mortality or growth inhibition) at 200 ppm [2] | percent control (mortality, anti-feedant effect or growth inhibition) at 200 ppm [4]

CCS(=O)(=O)c1ccc(Cl)nc1-c1cc2cnn(CC(F)(F)C(F)(F)F)c2cn1 [Compound P49, 5-(6-chloro-3-ethylsulfonyl-2-pyridyl)-1-(2,2,3,3,3-pentafluoropropyl) pyrazolo[3,4-c]pyridine]
≥ 80%: percent effect (mortality or growth inhibition) at 200 ppm [1] | percent effect (mortality or growth inhibition) at 200 ppm [3] | percent effect (mortality or growth inhibition) at 200 ppm [2] | percent control (mortality, anti-feedant effect or growth inhibition) at 200 ppm [4]

CCSc1cc(-n2ccc(C(F)(F)F)n2)cnc1-c1cc2cnn(CC(F)(F)C(F)(F)F)c2cn1 [Compound P50, 5-[3-ethylsulfanyl-5-[3-(trifluoromethyl)pyrazol-1-yl]-2-pyridyl]-1-(2,2,3,3,3-pentafluoropropyl) pyrazolo[3,4-c]pyridine]
≥ 80%: percent effect (mortality or growth inhibition) at 200 ppm [1] | percent effect (mortality or growth inhibition) at 200 ppm [2] | percent control (mortality, anti-feedant effect or growth inhibition) at 200 ppm [4]

CCS(=O)(=O)c1cc(C2CC2)cnc1-c1cc2ccn(CC(F)(F)C(F)(F)F)c2cn1 [Compound P51, 5-(5-cyclopropyl-3-ethylsulfonyl-2-pyridyl)-1-(2,2,3,3,3-pentafluoropropyl) pyrrolo[2,3-c]pyridine]
≥ 80%: percent effect (mortality or growth inhibition) at 200 ppm [1] | percent effect (mortality or growth inhibition) at 200 ppm [2] | percent control (mortality, anti-feedant effect or growth inhibition) at 200 ppm [4]

CCSc1cc(C2CC2)c[n+]([O-])c1-c1cc2ncn(CC(F)(F)C(F)(F)F)c2cn1 [PN4, 6-(5-cyclopropyl-3-ethylsulfanyl-1-oxido-pyridin-1-ium-2-yl)-3-(2,2,3,3,3-pentafluoropropyl)imidazo[4,5-c]pyridine]
≥ 80%: percent effect (mortality or growth inhibition) at 200 ppm [3]

CCSc1cc(C2(C#N)CC2)c[n+]([O-])c1-c1cc2ncn(CC(F)(F)C(F)(F)F)c2cn1 [PN8, 1-[5-ethylsulfanyl-1-oxido-6-[3-(2,2,3,3,3-pentafluoropropyl)imidazo[4,5-c]pyridin-6-yl]pyridin-1-ium-3-yl]cyclopropane-carbonitrile]
≥ 80%: percent effect (mortality or growth inhibition) at 200 ppm [3]
